Measurements taken from the NIST ThermoML archive (doi:10.1021/acs.jced.7b00221).

Experiment: xn = mol fraction of the nth substance listed
Settings: 100 kPa, Liquid, Cone and plate viscometry

CC(=O)[O-].CCCCCCCCCCCCCC[P+](CCCCCC)(CCCCCC)CCCCCC [trihexyl(tetradecyl)phosphonium acetate] + CCCCCC[n+]1ccn(C)c1.O=S(=O)([N-]S(=O)(=O)C(F)(F)F)C(F)(F)F
viscosity [mPa·s]
Settings	278.15 K	283.15 K	288.15 K	293.15 K	298.15 K	303.15 K	308.15 K	313.15 K	318.15 K	323.15 K
x1 = 0.101	353	251	182	136	105	82	66	53	–	–
x1 = 0.199	579	404	286	209	156	120	94	75	61	–
x1 = 0.3	946	644	447	319	235	177	136	107	85	70
x1 = 0.4	1403	939	640	449	324	239	181	140	110	88
x1 = 0.499	2057	1345	901	621	440	320	238	181	141	112
x1 = 0.6	2588	1669	1100	746	523	376	277	207	159	124
x1 = 0.699	2721	1763	1160	785	530	381	279	208	159	125
x1 = 0.799	2877	1850	1219	827	578	414	304	228	175	137
x1 = 0.899	2415	1575	1047	717	505	366	271	204	158	123

CCCCCCCCCCCCCC[P+](CCCCCC)(CCCCCC)CCCCCC.N#Cc1ccc[n-]1 [trihexyl(tetradecyl)phosphonium 2-cyanopyrrolide] + CCCCCC[n+]1ccn(C)c1.O=S(=O)([N-]S(=O)(=O)C(F)(F)F)C(F)(F)F
viscosity [mPa·s]
Settings	278.15 K	283.15 K	288.15 K	293.15 K	298.15 K	303.15 K	308.15 K	313.15 K	318.15 K	323.15 K
x1 = 0.1	337	240	176	132	101	80	64	52	–	–
x1 = 0.2	520	363	259	190	144	111	88	71	58	–
x1 = 0.3	662	455	319	229	170	129	100	79	64	52
x1 = 0.4	900	608	420	298	217	162	125	97	78	63
x1 = 0.496	1216	815	558	392	284	210	160	123	98	79
x1 = 0.6	1407	938	638	445	319	236	177	136	107	85
x1 = 0.698	1684	1117	755	525	376	275	207	158	124	99
x1 = 0.8	1749	1160	785	546	391	286	214	163	128	102
x1 = 0.898	1844	1223	830	578	414	303	228	173	135	108
x1 = 1	1764	1179	804	563	404	297	223	170	133	106

CCCCCCCCCCCCCC[P+](CCCCCC)(CCCCCC)CCCCCC.N#Cc1ccc[n-]1 [trihexyl(tetradecyl)phosphonium 2-cyanopyrrolide] + CCCCCCn1cc[n+](C)c1C.O=S(=O)([N-]S(=O)(=O)C(F)(F)F)C(F)(F)F
viscosity [mPa·s]
Settings	278.15 K	283.15 K	288.15 K	293.15 K	298.15 K	303.15 K	308.15 K	313.15 K	318.15 K	323.15 K
x1 = 0.1	701	472	328	234	173	131	102	81	–	–
x1 = 0.201	895	598	411	290	212	159	122	96	77	63
x1 = 0.3	1056	699	474	332	240	178	136	105	83	67
x1 = 0.399	1356	897	607	422	304	224	169	130	103	82
x1 = 0.5	1594	1048	705	488	350	257	193	148	116	93
x1 = 0.601	1658	1093	734	507	361	264	197	151	117	94
x1 = 0.699	1745	1141	764	527	375	273	204	155	120	96
x1 = 0.799	1868	1221	820	566	403	294	219	167	130	103
x1 = 0.902	1930	1279	867	602	430	315	237	180	141	112
x1 = 1	1764	1179	804	563	404	297	223	170	133	106
